According to patent publication US20250018047A1, “METHODS AND COMPOSITIONS FOR TARGETED PROTEIN DEGRADATION” (Ranok Therapeutics (Hangzhou) Co. Ltd., priority 2021, published 2025):
Where a name gives a salt, the structure may show the parent alone.

Key:
KRAS(G12D)/SOS1 = biological target: T1, KRAS(G12D)/SOS1 (Homo sapiens, UniProt P01116, G12D); experiment: KRAS(G12D)/SOS1 homogeneous time-resolved fluorescence (HTRF) assay; assay type: binding; settings: absence of GTP, 4° C. for 3 hr
T1 construct: purchased Cisbio 63ADK000CB16PEG
T1 sequence (P01116 1-188 isoform P01116-2 G12D): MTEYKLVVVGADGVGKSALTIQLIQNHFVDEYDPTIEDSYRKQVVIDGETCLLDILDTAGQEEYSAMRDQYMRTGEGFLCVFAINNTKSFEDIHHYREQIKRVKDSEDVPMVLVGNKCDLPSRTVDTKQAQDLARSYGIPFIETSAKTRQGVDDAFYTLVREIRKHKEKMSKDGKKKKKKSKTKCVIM
Experimental: The test compound was mixed and incubated with reaction components, incubated in a sealed plate at 4° C. for 3 hr and fluorescence was measured using a PerkinElmer Envision plate reader.

[1] = tested on: A-427 human lung carcinoma; experiment: CellTiter-Glo cancer cell line proliferation assay, A-427; assay type: cell-based; settings: Homo sapiens, A-427, 24 hr, read-out: A427 at 24 hrs, IC50
Method in brief: (§1)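 Cells plated at 4,000/well, grown 24 h at 37 °C/5% CO2, then exposed to compound concentration series (0.5% DMSO final) for 24 h. Viability read by CellTiter-Glo luminescence; IC50 values calculated.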

[2] = biological target: BA/F3-KRAS(G12D) murine pro-B cell line stably expressing KRAS(G12D) (Homo sapiens, UniProt P01116, G12D, cells depend on it); experiment: CellTiter-Glo cancer cell line proliferation assay, BA/F3-KRAS(G12D); assay type: cell-based; settings: 24 hr, read-out: BAF3 at 24 hrs, IC50
BA/F3-KRAS(G12D) murine pro-B cell line stably expressing KRAS(G12D), sequence (P01116 whole entry G12D): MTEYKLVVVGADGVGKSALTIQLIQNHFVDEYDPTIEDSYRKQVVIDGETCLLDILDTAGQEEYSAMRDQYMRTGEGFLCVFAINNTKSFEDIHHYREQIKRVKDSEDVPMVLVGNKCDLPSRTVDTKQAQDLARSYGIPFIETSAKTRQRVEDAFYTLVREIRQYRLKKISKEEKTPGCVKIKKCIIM
Experimental: The following cancer cell lines were employed: AsPC-1 human pancreatic adenocarcinoma (ATCC, #CRL-1682); A-427 human lung carcinoma (ATCC, #HTB-53); BA/F3-KRAS(G12D) murine pro-B cell line stably expressing KRAS(G12D) (Precedo, Hefei, China). Cell lines were cultured according to ATCC and recommendations. BA/F3-KRAS(G12D) cells were cultured in RPMI 1640 media with 10% fetal calf serum, 100 units/mL penicillin and […] streptomycin, and 1% glutamine.
CellTiter-Glo® Reagent Cancer Cell Line Proliferation Assays
Cells were plated in 96-well tissue culture plates at 4,000 cells/well and incubated at 37° C./5% CO2 for 24 hr in 100 μl of media. 3-fold serial dilutions of each test compound were prepared ranging from 20 μM to 1.02 nM. Cells were then treated with test compounds at various concentrations with a final concentration of 0.5% DMSO/well, and then incubated at 37° C./5% CO2 for 24 hr. 100 μl of CellTiter-Glo® Reagent (Promega Corporation, Madison, WI) was added to each well and processed according manufacturer's protocol. Results were analyzed and IC50-values were calculated in GraphPad 7 software.

[3] = tested on: AsPC-1 human pancreatic adenocarcinoma; experiment: CellTiter-Glo cancer cell line proliferation assay, AsPC-1; assay type: cell-based; settings: Homo sapiens, ASPC1, 24 hr
Method in brief: as §1

C#Cc1cccc2cccc(-c3ncc4c(N5CC6CCC(C5)N6)nc(OCCN5CCN(C(=O)C6CCN(c7ccc8c(c7)CN(C7CCC(=O)NC7=O)C8=O)CC6)CC5)nc4c3F)c12 (stereo not drawn) [Compound 17, 3-(5-(4-(4-(2-((4-(3,8-diazabicyclo[3.2.1]octan-3-yl)-7-(8-ethynylnaphthalen-1-yl)-8-fluoropyrido[4,3-d]pyrimidin-2-yl)oxy)ethyl)piperazine-1-carbonyl)piperidin-1-yl)-1-oxoisoindolin-2-yl)piperidine-2,6-dione formate] was tested, and the IC50 (KRAS(G12D)/SOS1) was under 0.1 µM, the IC50 [1] was over 1 µM and the GI50 [2] was over 1 µM. The IC50 [3] was over 1 µM.

CN1C[C@@H](N2CCC(C(=O)N3CCN(c4ccc5c(c4)C(=O)N(C4CCC(=O)NC4=O)C5=O)CC3)CC2)C[C@H]1COc1nc(N2CC3CCC(C2)N3)c2cnc(-c3cccc4ccccc34)c(F)c2n1 (stereo partly drawn) [Compound 19, 5-(4-(1-((3S,5S)-5-(((4-(3,8-diazabicyclo[3.2.1]octan-3-yl)-8-fluoro-7-(naphthalen-1-yl)pyrido[4,3-d]pyrimidin-2-yl)oxy)methyl)-1-methylpyrrolidin-3-yl)piperidine-4-carbonyl)piperazin-1-yl)-2-(2,6-dioxopiperidin-3-yl)isoindoline-1,3-dione formate] showed an IC50 (KRAS(G12D)/SOS1) of 0.1 to 1 µM, an IC50 [1] of over 1 µM and a GI50 [2] of over 1 µM. For the same compound, the IC50 [3] was over 1 µM.

Compound CN1C[C@@H](N2CCC(C(=O)NCCOCCOc3ccc4c(c3)C(=O)N(C3CCC(=O)NC3=O)C4=O)CC2)C[C@H]1COc1nc(N2CC3CCC(C2)N3)c2cnc(-c3cccc4ccccc34)c(F)c2n1 (stereo partly drawn) [Compound 21, 1-((3S,5S)-5-(((4-(3,8-diazabicyclo[3.2.1]octan-3-yl)-8-fluoro-7-(naphthalen-1-yl)pyrido[4,3-d]pyrimidin-2-yl)oxy)methyl)-1-methylpyrrolidin-3-yl)-N-(2-(2-((2-(2,6-dioxopiperidin-3-yl)-1,3-dioxoisoindolin-5-yl)oxy)ethoxy)ethyl)piperidine-4-carboxamide formate] has an IC50 (KRAS(G12D)/SOS1) of 0.1 to 1 µM, an IC50 [1] of over 1 µM and a GI50 [2] of over 1 µM. The IC50 [3] was over 1 µM.

For CN1C[C@@H](N2CCC(C(=O)NCCOc3ccc4c(c3)C(=O)N(C3CCC(=O)NC3=O)C4=O)CC2)C[C@H]1COc1nc(N2CC3CCC(C2)N3)c2cnc(-c3cccc4ccccc34)c(F)c2n1 (stereo partly drawn) [Compound 22, 1-((3S,5S)-5-(((4-(3,8-diazabicyclo[3.2.1]octan-3-yl)-8-fluoro-7-(naphthalen-1-yl)pyrido[4,3-d]pyrimidin-2-yl)oxy)methyl)-1-methylpyrrolidin-3-yl)-N-(2-((2-(2,6-dioxopiperidin-3-yl)-1,3-dioxoisoindolin-5-yl)oxy)ethyl)piperidine-4-carboxamide formate], the IC50 (KRAS(G12D)/SOS1) was over 1 µM, the IC50 [1] was over 1 µM and the GI50 [2] was over 1 µM. It also gave an IC50 [3] of over 1 µM.

Cc1ncsc1-c1ccc(CNC(=O)[C@@H]2C[C@@H](O)CN2C(=O)[C@@H](NC(=O)C2CCN([C@H]3C[C@@H](COc4nc(N5CC6CCC(C5)N6)c5cnc(-c6cccc7ccccc67)c(F)c5n4)N(C)C3)CC2)C(C)(C)C)cc1 [Compound 23, 1-((3S,5S)-5-(((4-(3,8-diazabicyclo[3.2.1]octan-3-yl)-8-fluoro-7-(naphthalen-1-yl)pyrido[4,3-d]pyrimidin-2-yl)oxy)methyl)-1-methylpyrrolidin-3-yl)-N—((S)-1-((2S,4R)-4-hydroxy-2-((4-(4-methylthiazol-5-yl)benzyl)carbamoyl)pyrrolidin-1-yl)-3,3-dimethyl-1-oxobutan-2-yl)piperidine-4-carboxamide formate] showed an IC50 (KRAS(G12D)/SOS1) of over 1 µM, an IC50 [1] of over 1 µM and a GI50 [2] of over 1 µM. The IC50 [3] was over 1 µM.

For Cc1ncsc1-c1ccc(CNC(=O)[C@@H]2C[C@@H](O)CN2C(=O)[C@@H](NC(=O)C2CCN([C@H]3C[C@@H](COc4nc(N5CC6CCC(C5)N6)c5cnc(-c6cccc7cccc(Cl)c67)c(F)c5n4)N(C)C3)CC2)C(C)(C)C)cc1 [Compound 24, 1-((3S,5S)-5-(((4-(3,8-diazabicyclo[3.2.1]octan-3-yl)-7-(8-chloronaphthalen-1-yl)-8-fluoropyrido[4,3-d]pyrimidin-2-yl)oxy)methyl)-1-methylpyrrolidin-3-yl)-N—((S)-1-((2S,4R)-4-hydroxy-2-((4-(4-methylthiazol-5-yl)benzyl)carbamoyl)pyrrolidin-1-yl)-3,3-dimethyl-1-oxobutan-2-yl)piperidine-4-carboxamide formate], the IC50 (KRAS(G12D)/SOS1) was 0.1 to 1 µM, the IC50 [1] was over 1 µM and the GI50 [2] was over 1 µM. For the same compound, the IC50 [3] was over 1 µM.

In the case of CN1C[C@@H](N2CCC(C(=O)Nc3ccc4c(c3)C(=O)N(C3CCC(=O)NC3=O)C4=O)CC2)C[C@H]1COc1nc(N2CC3CCC(C2)N3)c2cnc(-c3cccc4ccccc34)c(F)c2n1 (stereo partly drawn) [Compound 25, 1-((3S,5S)-5-(((4-(3,8-diazabicyclo[3.2.1]octan-3-yl)-8-fluoro-7-(naphthalen-1-yl)pyrido[4,3-d]pyrimidin-2-yl)oxy)methyl)-1-methylpyrrolidin-3-yl)-N-(2-(2,6-dioxopiperidin-3-yl)-1,3-dioxoisoindolin-5-yl)piperidine-4-carboxamide formate], the IC50 (KRAS(G12D)/SOS1) is reported as under 0.1 µM, the IC50 [1] is reported as over 1 µM and the GI50 [2] is reported as over 1 µM. The IC50 [3] was over 1 µM.

Cc1ncsc1-c1ccc(CNC(=O)[C@@H]2C[C@@H](O)CN2C(=O)[C@@H](NC(=O)CCCNC(=O)C2CCN([C@H]3C[C@@H](COc4nc(N5CC6CCC(C5)N6)c5cnc(-c6cccc7cccc(Cl)c67)c(F)c5n4)N(C)C3)CC2)C(C)(C)C)cc1 [Compound 26, 1-((3S,5S)-5-(((4-(3,8-diazabicyclo[3.2.1]octan-3-yl)-7-(8-chloronaphthalen-1-yl)-8-fluoropyrido[4,3-d]pyrimidin-2-yl)oxy)methyl)-1-methylpyrrolidin-3-yl)-N-(4-(((S)-1-((2S,4R)-4-hydroxy-2-((4-(4-methylthiazol-5-yl)benzyl)carbamoyl)pyrrolidin-1-yl)-3,3-dimethyl-1-oxobutan-2-yl)amino)-4-oxobutyl)piperidine-4-carboxamide] was tested, and the IC50 (KRAS(G12D)/SOS1) was under 0.1 µM, the IC50 [1] was over 1 µM and the GI50 [2] was over 1 µM. For the same compound, the IC50 [3] was over 1 µM.

Compound Cc1ncsc1-c1ccc(CNC(=O)[C@@H]2C[C@@H](O)CN2C(=O)[C@@H](NC(=O)CCNC(=O)C2CCN([C@H]3C[C@@H](COc4nc(N5CC6CCC(C5)N6)c5cnc(-c6cccc7cccc(Cl)c67)c(F)c5n4)N(C)C3)CC2)C(C)(C)C)cc1 [Compound 27, 1-((3S,5S)-5-(((4-(3,8-diazabicyclo[3.2.1]octan-3-yl)-7-(8-chloronaphthalen-1-yl)-8-fluoropyrido[4,3-d]pyrimidin-2-yl)oxy)methyl)-1-methylpyrrolidin-3-yl)-N-(3-(((S)-1-((2S,4R)-4-hydroxy-2-((4-(4-methylthiazol-5-yl)benzyl)carbamoyl)pyrrolidin-1-yl)-3,3-dimethyl-1-oxobutan-2-yl)amino)-3-oxopropyl)piperidine-4-carboxamide formate] has an IC50 (KRAS(G12D)/SOS1) of 0.1 to 1 µM, an IC50 [1] of over 1 µM and a GI50 [2] of over 1 µM. For the same compound, the IC50 [3] was over 1 µM.

In the case of C#Cc1cccc2cccc(-c3ncc4c(N5CC6CCC(C5)N6)nc(OCC5(CN6CCN(Cc7ccc8c(c7)C(=O)N(C7CCC(=O)NC7=O)C8=O)CC6)CC5)nc4c3F)c12 (stereo not drawn) [Compound 28, 5-((4-((1-(((4-(3,8-diazabicyclo[3.2.1]octan-3-yl)-7-(8-ethynylnaphthalen-1-yl)-8-fluoropyrido[4,3-d]pyrimidin-2-yl)oxy)methyl)cyclopropyl)methyl)piperazin-1-yl)methyl)-2-(2,6-dioxopiperidin-3-yl)isoindoline-1,3-dione formate], the IC50 (KRAS(G12D)/SOS1) is reported as under 0.1 µM, the IC50 [1] is reported as over 1 µM and the GI50 [2] is reported as over 1 µM. For the same compound, the IC50 [3] was over 1 µM.

In the case of C#Cc1cccc2cccc(-c3ncc4c(N5CC6CCC(C5)N6)nc(OCC5(CN6CCN(CC7CCN(c8cccc9c8C(=O)N(C8CCC(=O)NC8=O)C9=O)CC7)CC6)CC5)nc4c3F)c12 (stereo not drawn) [Compound 29, 4-(4-((4-((1-(((4-(3,8-diazabicyclo[3.2.1]octan-3-yl)-7-(8-ethynylnaphthalen-1-yl)-8-fluoropyrido[4,3-d]pyrimidin-2-yl)oxy)methyl)cyclopropyl)methyl)piperazin-1-yl)methyl)piperidin-1-yl)-2-(2,6-dioxopiperidin-3-yl)isoindoline-1,3-dione formate], the IC50 (KRAS(G12D)/SOS1) is reported as under 0.1 µM, the IC50 [1] is reported as over 1 µM and the GI50 [2] is reported as 0.1 to 1 µM. The IC50 [3] was over 1 µM.

For C#Cc1cccc2cccc(-c3ncc4c(N5CC6CCC(C5)N6)nc(OCC5(CN6CCN(C(=O)C7CCN(c8ccc9c(c8)C(=O)N(C8CCC(=O)NC8=O)C9=O)CC7)CC6)CC5)nc4c3F)c12 (stereo not drawn) [Compound 30, 5-(4-(4-((1-(((4-(3,8-diazabicyclo[3.2.1]octan-3-yl)-7-(8-ethynylnaphthalen-1-yl)-8-fluoropyrido[4,3-d]pyrimidin-2-yl)oxy)methyl)cyclopropyl)methyl)piperazine-1-carbonyl)piperidin-1-yl)-2-(2,6-dioxopiperidin-3-yl)isoindoline-1,3-dione formate], the IC50 (KRAS(G12D)/SOS1) was under 0.1 µM, the IC50 [1] was over 1 µM and the GI50 [2] was over 1 µM. The IC50 [3] was over 1 µM.
